The record followed here is PubChem BioAssay AID1745844 (Carcinogenic Potency Database (CPDB), 2022).

This series deals with rodent lifetime carcinogenesis bioassay, tumor incidence TD50. As to the kind of experiment: carcinogenic potency in animals, long-term in vivo studies, CPDB compilation (AID 1745844).

The source made the active and inactive calls. No rule for the calls is given here.

As to `O=[N+]([O-])OCC(CO[N+](=O)[O-])O[N+](=O)[O-]`, the TD50 – broadly, the dose at which the toxic effect under study appears in half of the subjects – runs as follows: (rat, strain Charles River CD (Sprague-Dawley), females, in feed, site: liver, lesion: several types, types named in the paper, dosed 104 weeks, study length 104 weeks) 329 mg/kg/day; (rat, strain Charles River CD (Sprague-Dawley), males, in feed, site: liver, lesion: several types, types named in the paper, dosed 104 weeks, study length 104 weeks) 221 mg/kg/day; (rat, strain Charles River CD (Sprague-Dawley), males, in feed, site: testis, lesion: interstitial-cell tumor, dosed 104 weeks, study length 104 weeks) 405 mg/kg/day; (rat, strain Fischer 344, males, in feed, site: liver, lesion: cholangiocarcinoma, dosed 70 weeks, study length 70 weeks) 681 mg/kg/day; (rat, strain Fischer 344, males, in feed, site: liver, lesion: cholangiocarcinoma, dosed 76 weeks, study length 76 weeks) 509 mg/kg/day; (rat, strain Fischer 344, males, in feed, site: liver, lesion: cholangioma, dosed 76 weeks, study length 76 weeks) 211 mg/kg/day. Besides, the TD50 reads like this: (rat, strain Fischer 344, males, in feed, site: liver, lesion: hepatocellular adenoma, dosed 70 weeks, study length 70 weeks) 179 mg/kg/day; (rat, strain Fischer 344, males, in feed, site: liver, lesion: hepatocellular adenoma, dosed 76 weeks, study length 76 weeks) 106 mg/kg/day; (rat, strain Fischer 344, males, in feed, site: liver, lesion: several types, types named in the paper, dosed 70 weeks, study length 70 weeks) 113 mg/kg/day. Also, the carcinogen call (rat, strain Fischer 344, males, in feed, site: liver, lesion: several types, types named in the paper, dosed 76 weeks, study length 76 weeks) is “positive”.

In the case of `Cc1ccc(N=C=O)cc1N=C=O`, the TD50 (mouse, strain B6C3F1, females, by gavage, site: abdominal cavity + liver + ovary + spleen + subcutaneous tissue, lesion: hemangiosarcoma + hemangioma, dosed 105 weeks, study length 107 weeks) is 580 mg/kg/day; the TD50 (mouse, strain B6C3F1, females, by gavage, site: abdominal cavity + liver + ovary + spleen + subcutaneous tissue, lesion: hemangiosarcoma + hepatocellular adenoma + hemangioma, dosed 105 weeks, study length 107 weeks) is 181 mg/kg/day; the TD50 (mouse, strain B6C3F1, females, by gavage, site: abdominal cavity + liver + ovary, lesion: hemangiosarcoma, dosed 105 weeks, study length 107 weeks) was 1200 mg/kg/day; the TD50 (mouse, strain B6C3F1, females, by gavage, site: any site (literature study), lesion: several types, types named in the paper, dosed 105 weeks, study length 107 weeks) came out at 305 mg/kg/day; the TD50 (mouse, strain B6C3F1, females, by gavage, site: liver, lesion: hepatocellular adenoma + hepatocellular carcinoma + neoplastic nodule, dosed 105 weeks, study length 107 weeks) turned out to be 215 mg/kg/day; the TD50 (mouse, strain B6C3F1, females, by gavage, site: liver, lesion: hepatocellular adenoma + hepatocellular carcinoma, dosed 105 weeks, study length 107 weeks) was 215 mg/kg/day. The TD50 was 250 mg/kg/day (mouse, strain B6C3F1, females, by gavage, site: liver, lesion: hepatocellular adenoma, dosed 105 weeks, study length 107 weeks); 815 mg/kg/day (mouse, strain B6C3F1, females, by gavage, site: lung, lesion: alveolar/bronchiolar adenoma + alveolar/bronchiolar carcinoma, dosed 105 weeks, study length 107 weeks); 253 mg/kg/day (inactive) (mouse, strain B6C3F1, males, by gavage, site: any site (literature study), lesion: several types, types named in the paper, dosed 105 weeks, study length 107 weeks); 1920 mg/kg/day (mouse, strain B6C3F1, males, by gavage, site: lung, lesion: alveolar/bronchiolar adenoma + alveolar/bronchiolar carcinoma, dosed 105 weeks, study length 107 weeks); 1.63 mg/kg/day (inactive) (mouse, strain Charles River CD1, males, inhaled, site: any site (literature study), lesion: several types, types named in the paper, dosed 104 weeks, study length 104 weeks); 0.3 mg/kg/day (inactive) (mouse, strain Charles River CD1, males, inhaled, site: lung, lesion: adenoma, dosed 104 weeks, study length 104 weeks). Also, the TD50 is 1.09 mg/kg/day (inactive) (rat, strain Charles River CD (Sprague-Dawley), females, inhaled, site: any site (literature study), lesion: malignant tumor, dosed 108 weeks, study length 108 weeks); 8.24 mg/kg/day (inactive) (rat, strain Charles River CD (Sprague-Dawley), females, inhaled, site: liver, lesion: hepatocellular carcinoma, dosed 108 weeks, study length 108 weeks); 6.18 mg/kg/day (inactive) (rat, strain Charles River CD (Sprague-Dawley), males, inhaled, site: any site (literature study), lesion: malignant tumor, dosed 110 weeks, study length 110 weeks); 174 mg/kg/day (rat, strain Fischer 344, females, by gavage, site: adrenal gland, lesion: cortical adenoma, dosed 106 weeks, study length 108 weeks); 143 mg/kg/day (rat, strain Fischer 344, females, by gavage, site: adrenal gland, lesion: pheochromocytoma, dosed 106 weeks, study length 108 weeks); 25.1 mg/kg/day (rat, strain Fischer 344, females, by gavage, site: any site (literature study), lesion: several types, types named in the paper, dosed 106 weeks, study length 108 weeks). In addition, the TD50 is, setting by setting: (rat, strain Fischer 344, females, by gavage, site: clitoral gland, lesion: adenoma, NOS, dosed 106 weeks, study length 108 weeks) 260 mg/kg/day; (rat, strain Fischer 344, females, by gavage, site: liver + mammary gland + pancreatic islets + subcutaneous tissue, lesion: neoplastic nodule + fibroadenoma + islet-cell adenoma + fibrosarcoma + fibroma, dosed 106 weeks, study length 108 weeks) 25.4 mg/kg/day; (rat, strain Fischer 344, females, by gavage, site: liver, lesion: hepatocellular adenoma + hepatocellular carcinoma + neoplastic nodule, dosed 106 weeks, study length 108 weeks) 92.2 mg/kg/day; (rat, strain Fischer 344, females, by gavage, site: liver, lesion: neoplastic nodule, dosed 106 weeks, study length 108 weeks) 92.2 mg/kg/day; (rat, strain Fischer 344, females, by gavage, site: mammary gland, lesion: fibroadenoma, dosed 106 weeks, study length 108 weeks) 33.4 mg/kg/day; (rat, strain Fischer 344, females, by gavage, site: pancreatic islets, lesion: islet-cell adenoma + islet-cell carcinoma, dosed 106 weeks, study length 108 weeks) 115 mg/kg/day. In addition, the TD50 was 135 mg/kg/day (rat, strain Fischer 344, females, by gavage, site: pancreatic islets, lesion: islet-cell adenoma, dosed 106 weeks, study length 108 weeks); 86.9 mg/kg/day (rat, strain Fischer 344, females, by gavage, site: pituitary gland, lesion: chromophobe adenoma + chromophobe carcinoma, dosed 106 weeks, study length 108 weeks); 77.3 mg/kg/day (rat, strain Fischer 344, females, by gavage, site: pituitary gland, lesion: chromophobe adenoma, dosed 106 weeks, study length 108 weeks); 256 mg/kg/day (rat, strain Fischer 344, females, by gavage, site: subcutaneous tissue, lesion: fibroma, dosed 106 weeks, study length 108 weeks); 206 mg/kg/day (rat, strain Fischer 344, females, by gavage, site: subcutaneous tissue, lesion: fibrosarcoma + fibroma, dosed 106 weeks, study length 108 weeks); 18.4 mg/kg/day (rat, strain Fischer 344, males, by gavage, site: any site (literature study), lesion: several types, types named in the paper, dosed 106 weeks, study length 108 weeks). Moreover, the TD50 by setting is: (rat, strain Fischer 344, males, by gavage, site: liver, lesion: hepatocellular adenoma + hepatocellular carcinoma + neoplastic nodule, dosed 106 weeks, study length 108 weeks) 196 mg/kg/day; (rat, strain Fischer 344, males, by gavage, site: pancreas + subcutaneous tissue, lesion: acinar-cell adenoma + fibrosarcoma + fibroma, dosed 106 weeks, study length 108 weeks) 27.3 mg/kg/day; (rat, strain Fischer 344, males, by gavage, site: pancreas, lesion: acinar-cell adenoma, dosed 106 weeks, study length 108 weeks) 51.6 mg/kg/day; (rat, strain Fischer 344, males, by gavage, site: pancreatic islets, lesion: islet-cell adenoma + islet-cell carcinoma, dosed 106 weeks, study length 108 weeks) 201 mg/kg/day; (rat, strain Fischer 344, males, by gavage, site: pituitary gland, lesion: chromophobe adenoma + chromophobe carcinoma, dosed 106 weeks, study length 108 weeks) 83.7 mg/kg/day; (rat, strain Fischer 344, males, by gavage, site: pituitary gland, lesion: chromophobe adenoma, dosed 106 weeks, study length 108 weeks) 76.4 mg/kg/day. Besides, the TD50 is 56 mg/kg/day (rat, strain Fischer 344, males, by gavage, site: subcutaneous tissue, lesion: fibroma, dosed 106 weeks, study length 108 weeks); 34.1 mg/kg/day (rat, strain Fischer 344, males, by gavage, site: subcutaneous tissue, lesion: fibrosarcoma + fibroma, dosed 106 weeks, study length 108 weeks); 103 mg/kg/day (rat, strain Fischer 344, males, by gavage, site: subcutaneous tissue, lesion: fibrosarcoma + osteosarcoma + sarcoma, NOS, dosed 106 weeks, study length 108 weeks); 92.4 mg/kg/day (rat, strain Fischer 344, males, by gavage, site: subcutaneous tissue, lesion: fibrosarcoma, dosed 106 weeks, study length 108 weeks); 13.6 mg/kg/day (rat, strain Fischer 344, males, by gavage, site: testis, lesion: interstitial-cell tumor + interstitial-cell tumor, malignant, dosed 106 weeks, study length 108 weeks). Also, the carcinogen call is, setting by setting: (mouse, strain Charles River CD1, females, inhaled, site: any site (literature study), lesion: benign tumor, dosed 104 weeks, study length 104 weeks) “negative (inactive)”; (mouse, strain Charles River CD1, females, inhaled, site: any site (literature study), lesion: malignant tumor, dosed 104 weeks, study length 104 weeks) “negative (inactive)”; (mouse, strain Charles River CD1, females, inhaled, site: any site (literature study), lesion: several types, types named in the paper, dosed 104 weeks, study length 104 weeks) “negative (inactive)”; (mouse, strain Charles River CD1, females, inhaled, site: liver, lesion: hepatocellular adenoma, dosed 104 weeks, study length 104 weeks) “negative (inactive)”; (mouse, strain Charles River CD1, females, inhaled, site: liver, lesion: hepatocellular carcinoma, dosed 104 weeks, study length 104 weeks) “negative (inactive)”; (mouse, strain Charles River CD1, females, inhaled, site: lung, lesion: adenoma, dosed 104 weeks, study length 104 weeks) “negative (inactive)”. Also, the carcinogen call is “negative (inactive)” (mouse, strain Charles River CD1, females, inhaled, site: lung, lesion: carcinoma, dosed 104 weeks, study length 104 weeks); “negative (inactive)” (mouse, strain Charles River CD1, males, inhaled, site: any site (literature study), lesion: benign tumor, dosed 104 weeks, study length 104 weeks); “negative (inactive)” (mouse, strain Charles River CD1, males, inhaled, site: any site (literature study), lesion: malignant tumor, dosed 104 weeks, study length 104 weeks); “negative (inactive)” (mouse, strain Charles River CD1, males, inhaled, site: liver, lesion: hepatocellular adenoma, dosed 104 weeks, study length 104 weeks); “negative (inactive)” (mouse, strain Charles River CD1, males, inhaled, site: liver, lesion: hepatocellular carcinoma, dosed 104 weeks, study length 104 weeks); “negative (inactive)” (mouse, strain Charles River CD1, males, inhaled, site: lung, lesion: carcinoma, dosed 104 weeks, study length 104 weeks). In addition, the carcinogen call is “negative (inactive)” (rat, strain Charles River CD (Sprague-Dawley), females, inhaled, site: any site (literature study), lesion: benign tumor, dosed 108 weeks, study length 108 weeks); “negative (inactive)” (rat, strain Charles River CD (Sprague-Dawley), females, inhaled, site: any site (literature study), lesion: several types, types named in the paper, dosed 108 weeks, study length 108 weeks); “negative (inactive)” (rat, strain Charles River CD (Sprague-Dawley), males, inhaled, site: any site (literature study), lesion: benign tumor, dosed 110 weeks, study length 110 weeks); “negative (inactive)” (rat, strain Charles River CD (Sprague-Dawley), males, inhaled, site: any site (literature study), lesion: several types, types named in the paper, dosed 110 weeks, study length 110 weeks); “negative (inactive)” (rat, strain Charles River CD (Sprague-Dawley), males, inhaled, site: liver, lesion: hepatocellular carcinoma, dosed 110 weeks, study length 110 weeks).

On to `CC(=O)N(C(C)=O)c1cccc2c1Cc1ccccc1-2`, for which the TD50 is 61.2 mg/kg/day (rat, strain Buffalo, females, in feed, site: ear duct, lesion: squamous-cell carcinoma, dosed 53 weeks, study length 93 weeks); 61.2 mg/kg/day (rat, strain Buffalo, females, in feed, site: liver, lesion: hemangioma, dosed 53 weeks, study length 93 weeks); 19 mg/kg/day (rat, strain Buffalo, females, in feed, site: mammary gland, lesion: adenocarcinoma, dosed 53 weeks, study length 93 weeks); 8.63 mg/kg/day (rat, strain Buffalo, females, in feed, site: pituitary gland, lesion: adenoma, dosed 53 weeks, study length 93 weeks).
